Data reported in patent publication US20060069132A1, “Azolecarboxamide herbicides” (priority 2004, published 2006).

Assays:
[1] = test system: barnyardgrass; assay: Test B pre-/postemergence herbicide test; assay type: in vivo, Echinochloa crus-galli; details: for Plant response rating (0 to 100 scale), Barnyardgrass: 0 is no effect, preemergence
Method in brief: (§1)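 Plants compared with untreated controls 13–15 days post-treatment and given a visual 0–100 injury score. Applications: preemergence to seeds; postemergence at 1- to 4-leaf (2–18 cm); paddy species flooded, 2-leaf stage. Vehicle non-phytotoxic, surfactant included.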

[2] = test system: cocklebur; assay: Test B pre-/postemergence herbicide test; assay type: in vivo, Xanthium strumarium; details: for Plant response rating (0 to 100 scale), Cocklebur: 0 is no effect, preemergence
Method in brief: as §1

[3] = test system: corn; assay: Test B pre-/postemergence herbicide test; assay type: in vivo, Zea mays; details: for Plant response rating (0 to 100 scale), Corn: 0 is no effect, preemergence
Method in brief: (§2)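 Evaluation is visual, comparing treated with control plants on a scale where 0 means no effect and 100 means full control. Treatments were preemergence, or postemergence on seedlings 2–18 cm tall, and held 13–15 days in the greenhouse.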

[4] = test system: large crabgrass; assay: Test B pre-/postemergence herbicide test; assay type: in vivo, Digitaria sanguinalis; details: for Plant response rating (0 to 100 scale), Crabgrass, Large: 0 is no effect, preemergence
Method in brief: as §2

[5] = test system: giant foxtail; assay: Test B pre-/postemergence herbicide test; assay type: in vivo, Setaria faberi; details: for Plant response rating (0 to 100 scale), Foxtail, Giant: 0 is no effect, preemergence
Method in brief: as §2

[6] = test system: lambsquarters; assay: Test B pre-/postemergence herbicide test; assay type: in vivo, Chenopodium album; details: for Plant response rating (0 to 100 scale), Lambsquarters: 0 is no effect, 100 is complete control, preemergence; for Lambsquarters plant response rating: scale 0 (no effect) to 100 (complete control)
Method in brief: as §2

[7] = test system: morningglory; assay: Test B pre-/postemergence herbicide test; assay type: in vivo, Ipomoea coccinea; details: for Plant response rating (0 to 100 scale), Morningglory: 0 is no effect, 100 is complete control, preemergence; for Morningglory plant response rating: scale 0 (no effect) to 100 (complete control)
Method in brief: as §1

[8] = test system: pigweed; assay: Test B pre-/postemergence herbicide test; assay type: in vivo, Amaranthus retroflexus; details: for Plant response rating (0 to 100 scale), Pigweed: 0 is no effect, 100 is complete control, preemergence; for Pigweed plant response rating: scale 0 (no effect) to 100 (complete control)
Method in brief: as §2

[9] = test system: velvetleaf; assay: Test B pre-/postemergence herbicide test; assay type: in vivo, Abutilon theophrasti; details: for Plant response rating (0 to 100 scale), Velvetleaf: 0 is no effect, 100 is complete control, preemergence; for Velvetleaf plant response rating: scale 0 (no effect) to 100 (complete control)
Method in brief: as §2

[10] = test system: blackgrass; assay: Test B postemergence herbicide test; assay type: in vivo, Alopecurus myosuroides
Method in brief: (§3)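 Formulated test chemicals went onto postemergence plants measuring 2 to 18 cm, at one to four leaves. For the paddy assay, species had reached two leaves. Scoring took place 13–15 days later by eye, relative to untreated plants, using 0 for no effect up to 100 for full control.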

[11] = test system: wild oat; assay: Test B postemergence herbicide test; assay type: in vivo, Avena fatua; details: scale 0 (no effect) to 100 (complete control)
Method in brief: as §3

[12] = test system: rice; assay: Test B flooded paddy test; assay type: in vivo, Oryza sativa; details: 1000 g ai/ha, scale 0 to 100 (0 no effect, 100 complete control)
Method in brief: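 Each value is a visual 0–100 response rating taken against controls 13 to 15 days after treatment in the greenhouse. Plants received formulated chemical postemergence at the 1- to 4-leaf stage or, in flooded paddy, at the 2-leaf stage.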

[13] = test system: small flower umbrella sedge; assay: Test B flooded paddy test; assay type: in vivo, Cyperus difformis; details: 1000 g ai/ha, scale 0 to 100 (0 no effect, 100 complete control)
Method in brief: as §3

[14] = test system: ducksalad; assay: Test B flooded paddy test; assay type: in vivo, Heteranthera limosa; details: 1000 g ai/ha, scale 0 to 100 (0 no effect, 100 complete control)
Method in brief: as §3

[15] = test system: barnyardgrass; assay: Test B flooded paddy test; assay type: in vivo, Echinochloa crus-galli; details: 1000 g ai/ha, scale 0 to 100 (0 no effect, 100 complete control)
Method in brief: as §3

[16] = 125 g ai/ha, 100 is complete control
[17] = 125 g ai/ha, visual rating, scale 0 (no effect) to 100 (complete control), postemergence
[18] = postemergence, 500 g ai/ha, scale 0 to 100, 0 is no effect, 100 is complete control
[19] = 125 g ai/ha, visual rating, postemergence
[20] = Postemergence, 500 g ai/ha, scale 0 (no effect) to 100 (complete control)

SMILES | Plant response rating (0 to 100 scale), Barnyardgrass [1, 16] | Barnyardgrass plant response rating [1, 17] | Plant response rating (0 to 100 scale), Cocklebur [2, 16] | Cocklebur plant response rating [2, 17] | Plant response rating (0 to 100 scale), Corn [3, 16] | Corn plant response rating [3, 17] | Plant response rating (0 to 100 scale), Crabgrass, Large [4, 16] | Crabgrass, Large plant response rating [4, 17] | Plant response rating (0 to 100 scale), Foxtail, Giant [5, 16] | Foxtail, Giant plant response rating [5, 17] | Plant response rating (0 to 100 scale), Lambsquarters ([6]; 125 g ai/ha) | Lambsquarters plant response rating [6, 19] | Lambsquarters plant response rating ([6]; Postemergence, 500 g ai/ha) | Plant response rating (0 to 100 scale), Morningglory ([7]; 125 g ai/ha) | Morningglory plant response rating [7, 19] | Morningglory plant response rating ([7]; Postemergence, 500 g ai/ha) | Plant response rating (0 to 100 scale), Pigweed ([8]; 125 g ai/ha) | Pigweed plant response rating [8, 19] | Pigweed plant response rating ([8]; Postemergence, 500 g ai/ha) | Plant response rating (0 to 100 scale), Velvetleaf ([9]; 125 g ai/ha) | further results
C#CCNC(=O)c1cccc(NC(=O)c2nn(C(C)(C)C)nc2CC)c1 [Compound 380] | 70 | 0 | 0 | 20 | 0 | 0 | 90 | 0 | 70 | 0 | 90 | 60 | 70 | 10 | 20 | 60 | 100 | 50 | 80 | 10 | Barnyardgrass plant response rating [1, 18]: 0; Cocklebur plant response rating [2, 18]: 30; Corn plant response rating [3, 18]: 20; Crabgrass, Large plant response rating [4, 18]: 10; Foxtail, Giant plant response rating [5, 18]: 20; Velvetleaf plant response rating [9, 19]: 10; Velvetleaf plant response rating ([9]; Postemergence, 500 g ai/ha): 30; Blackgrass plant response rating [10, 17]: 20; Blackgrass plant response rating [10, 18]: 40; Oat, Wild plant response rating [11, 19]: 10; Oat, Wild plant response rating ([11]; Postemergence, 500 g ai/ha): 30; Rice plant response rating [12]: 70; Sedge, Umbrella plant response rating [13]: 70; Ducksalad plant response rating [14]: 80; Barnyardgrass plant response rating [15]: 70
Cc1nn(C(C)(C)C)nc1C(=O)Nc1cccc(C(=O)N(C)C)c1 [Compound 391] | 100 | 10 | 70 | 30 | 90 | 10 | 100 | 10 | 90 | 20 | 100 | 70 | 90 | 90 | 30 | 70 | 100 | 50 | 70 | 80 | Barnyardgrass plant response rating [1, 20]: 30; Cocklebur plant response rating [2, 20]: 30; Corn plant response rating [3, 20]: 30; Crabgrass, Large plant response rating [4, 20]: 30; Foxtail, Giant plant response rating [5, 20]: 30; Velvetleaf plant response rating [9, 19]: 40; Velvetleaf plant response rating ([9]; Postemergence, 500 g ai/ha): 60; Blackgrass plant response rating [10, 17]: 30; Blackgrass plant response rating [10, 20]: 70; Oat, Wild plant response rating [11, 19]: 0; Oat, Wild plant response rating ([11]; Postemergence, 500 g ai/ha): 20; Rice plant response rating [12]: 90; Sedge, Umbrella plant response rating [13]: 80; Ducksalad plant response rating [14]: 90; Barnyardgrass plant response rating [15]: 90
